These are literature values, as cited in patent publication US7816398B2, “Fatty alcohol drug conjugates” (Luitpold Pharmaceuticals, Inc., priority 2001, dated 2010).

For the data set the following is noted: relative to irinotecan.

On to `CCc1c2c(nc3ccc(O)cc13)-c1cc3c(c(=O)n1C2)COC(=O)[C@]3(O)CC` [SN-38], for which the “times more potent than Irinotecan” value is on record as roughly 100 times.
